In US6348477B1, “Anti-herpesvirus compounds and methods for identifying, making and using same” (Boehringer Ingelheim(Canada) Ltd., priority 1995, dated 2002):
pEC50, pIC50: −log10 of the molar value.

Tests used:
[1] = biological target: T1, HSV-1 helicase-primase (Human herpesvirus 1, UniProt P10189+P10236); assay: HSV-1 DNA-dependent ATPase assay (inhibition of HSV-1 helicase-primase); assay type: biochemical; conditions: Group 1 Table 1
T1 construct: made in house; host or cells: Sf21 insect cells triply infected with recombinant baculoviruses
Outline: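 HSV-1 helicase-primase holoenzyme (UL5/UL8/UL52, expressed in baculovirus-infected Sf21 cells, purified; 3 μg/mL) with 4 mM ATP and 25 μM primed single-stranded M13 DNA in HEPES pH 7.5, 5.5 mM MgCl2, 3.3% DMSO, 20 min at 34°. Released phosphate is read with malachite green at 650 nm, and activity is taken from the net absorbance change.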

[2] = system: HCMV (strain AD169); assay: Inhibition of HCMV replication, ELISA assay (Hs-68 cells, p28); assay type: cell-based, human cytomegalovirus; conditions: Human betaherpesvirus 5, AD169, Hs68; Group 1 Table 1; read-out: ELISA CMV EC50
Outline: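 Hs-68 cells infected with HCMV AD169 at MOI 0.01 PFU/cell (2 h adsorption), washed, then incubated with compound for 8 days at 37° in DMEM/5% FBS. Late protein p28 detected in fixed cells by mAb UL99 ELISA (HRP/OPD, 450 nm). EC50 from % inhibition of replication.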

T1 sequence (P10189 whole entry): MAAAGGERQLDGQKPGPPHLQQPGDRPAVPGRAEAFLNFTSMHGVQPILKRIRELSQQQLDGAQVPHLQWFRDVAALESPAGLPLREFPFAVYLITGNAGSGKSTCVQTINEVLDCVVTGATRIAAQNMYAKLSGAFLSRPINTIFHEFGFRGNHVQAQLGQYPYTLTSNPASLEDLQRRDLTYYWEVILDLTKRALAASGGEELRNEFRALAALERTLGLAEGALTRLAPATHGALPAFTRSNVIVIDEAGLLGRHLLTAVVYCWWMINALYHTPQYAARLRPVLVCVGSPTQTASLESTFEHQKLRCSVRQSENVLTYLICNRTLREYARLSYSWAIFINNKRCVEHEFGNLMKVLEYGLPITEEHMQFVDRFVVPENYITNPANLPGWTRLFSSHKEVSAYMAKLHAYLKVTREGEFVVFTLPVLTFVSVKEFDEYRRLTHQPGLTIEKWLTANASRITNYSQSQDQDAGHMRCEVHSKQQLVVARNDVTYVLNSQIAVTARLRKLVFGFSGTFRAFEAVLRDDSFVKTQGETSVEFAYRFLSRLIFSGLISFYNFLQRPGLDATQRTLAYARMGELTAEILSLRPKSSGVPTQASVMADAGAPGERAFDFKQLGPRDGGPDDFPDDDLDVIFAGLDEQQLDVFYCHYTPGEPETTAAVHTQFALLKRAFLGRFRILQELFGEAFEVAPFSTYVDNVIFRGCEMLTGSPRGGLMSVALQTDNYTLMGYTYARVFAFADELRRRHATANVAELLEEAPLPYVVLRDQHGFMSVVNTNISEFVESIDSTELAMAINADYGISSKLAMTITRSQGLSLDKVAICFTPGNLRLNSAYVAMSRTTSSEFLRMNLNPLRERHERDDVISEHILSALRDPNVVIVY
T1 sequence (P10192 whole entry, further chain): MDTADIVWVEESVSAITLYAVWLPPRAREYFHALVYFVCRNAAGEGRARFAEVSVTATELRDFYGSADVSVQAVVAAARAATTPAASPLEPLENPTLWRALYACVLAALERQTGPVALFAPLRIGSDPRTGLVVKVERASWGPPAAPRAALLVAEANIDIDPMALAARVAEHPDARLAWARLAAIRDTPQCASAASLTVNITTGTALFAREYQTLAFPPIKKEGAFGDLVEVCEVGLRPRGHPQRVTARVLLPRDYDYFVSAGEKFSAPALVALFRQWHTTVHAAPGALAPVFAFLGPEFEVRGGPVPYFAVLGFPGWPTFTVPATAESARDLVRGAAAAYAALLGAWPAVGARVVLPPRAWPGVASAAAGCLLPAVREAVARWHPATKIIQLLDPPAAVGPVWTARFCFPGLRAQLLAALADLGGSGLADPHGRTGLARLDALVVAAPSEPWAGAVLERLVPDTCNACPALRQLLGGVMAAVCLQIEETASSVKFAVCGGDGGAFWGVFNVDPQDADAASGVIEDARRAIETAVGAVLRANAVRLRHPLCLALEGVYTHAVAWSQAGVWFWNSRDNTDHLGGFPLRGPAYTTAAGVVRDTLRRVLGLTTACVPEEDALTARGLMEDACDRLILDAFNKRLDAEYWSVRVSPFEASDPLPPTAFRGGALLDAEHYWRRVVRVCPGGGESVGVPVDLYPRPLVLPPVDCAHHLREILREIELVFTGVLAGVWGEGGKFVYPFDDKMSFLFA
T1 sequence (P10236 whole entry): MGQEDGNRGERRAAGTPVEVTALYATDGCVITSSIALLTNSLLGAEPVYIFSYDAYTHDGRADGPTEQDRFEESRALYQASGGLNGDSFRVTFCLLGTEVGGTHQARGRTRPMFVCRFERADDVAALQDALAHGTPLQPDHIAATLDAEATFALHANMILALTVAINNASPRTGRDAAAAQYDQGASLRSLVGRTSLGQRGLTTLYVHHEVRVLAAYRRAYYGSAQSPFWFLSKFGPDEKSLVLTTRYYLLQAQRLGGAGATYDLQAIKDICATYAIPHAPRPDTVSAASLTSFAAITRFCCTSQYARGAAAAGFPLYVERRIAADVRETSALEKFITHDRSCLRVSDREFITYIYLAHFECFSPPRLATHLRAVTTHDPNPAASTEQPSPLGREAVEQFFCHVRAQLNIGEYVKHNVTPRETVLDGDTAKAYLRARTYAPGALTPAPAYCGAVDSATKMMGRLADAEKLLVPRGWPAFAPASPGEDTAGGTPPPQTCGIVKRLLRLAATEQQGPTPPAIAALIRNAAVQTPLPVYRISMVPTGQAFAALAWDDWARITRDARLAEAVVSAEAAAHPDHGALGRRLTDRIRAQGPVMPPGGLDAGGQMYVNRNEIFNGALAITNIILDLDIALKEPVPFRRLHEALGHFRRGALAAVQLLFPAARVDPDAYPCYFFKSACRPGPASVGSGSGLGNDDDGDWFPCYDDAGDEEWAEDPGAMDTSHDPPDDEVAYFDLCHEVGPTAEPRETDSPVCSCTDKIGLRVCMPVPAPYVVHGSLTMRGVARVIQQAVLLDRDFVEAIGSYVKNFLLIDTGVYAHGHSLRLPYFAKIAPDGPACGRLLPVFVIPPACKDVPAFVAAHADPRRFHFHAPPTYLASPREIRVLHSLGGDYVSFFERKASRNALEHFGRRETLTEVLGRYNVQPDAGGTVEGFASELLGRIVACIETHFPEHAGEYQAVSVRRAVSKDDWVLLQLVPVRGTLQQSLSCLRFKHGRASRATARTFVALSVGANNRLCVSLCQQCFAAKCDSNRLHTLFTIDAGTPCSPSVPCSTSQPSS

pIC50 [1]: 6.46
pEC50 [2]: 5.68
Compound: Nc1nc(-c2ccc(NC(=O)CN(CCc3ccccc3)C(=O)c3cccnc3)cc2)cs1 [Example 67]
